Test system: A375-NRAS^Q61K cells
Assay: CTGlo Cell Viability Assay, A375-NRAS^Q61K (A375.11) cells, 96 hours
Assay type: cell-based, human
Settings: A375.11 (A375-NRAS^Q61K) cells
Method in brief: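 Viability as CellTiter-Glo ATP luminescence after 96 h compound exposure at 37 °C; A375.11 (BRAF V600E/NRAS Q61K) cells at 250/well, top final concentration 10 μM in half-log steps. Signal was background-corrected and set relative to DMSO controls. A 4-parameter logistic fit gave GI50 (50% crossing) and Emax.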

[1] = Homo sapiens, 96 h, lowest % viability achieved

Row | Structure (SMILES) | GI50 (Homo sapiens, 96 h) [nM] | Emax [1] [%] | GI50 [nM] | CTGlo A375.11 96 hours Emax (lowest % viability achieved)
1 | CO[C@@H]1CCN(S(=O)(=O)Nc2ccc(F)c(Oc3ccc4ncn([C@H]5COC6(CCN(C7CC8(C7)CN(c7cc9c(cc7F)c(N7CCC(=O)NC7=O)nn9C)C8)CC6)C5)c(=O)c4c3)c2C#N)C1 [Compound 144, (3R)-N-[2-cyano-3-[3-[(3R)-8-[2-[3-(2,4-dioxohexahydropyrimidin-1-yl)-5-fluoro-1-methyl-indazol-6-yl]-2-azaspiro[3.3]heptan-6-yl]-1-oxa-8-azaspiro[4.5]decan-3-yl]-4-oxo-quinazolin-6-yl]oxy-4-fluoro-phenyl]-3-methoxy-pyrrolidine-1-sulfonamide] | < 1000 | < 50 |  | 
2 | CCN(C)S(=O)(=O)Nc1ccc(F)c(Oc2ccc3ncc(OCC4CCN(C5CCC(c6cc7c(cc6F)c(N6CCC(=O)NC6=O)nn7C)CC5)CC4)nc3c2)c1C#N (single isomer, unassigned) [Compound 118, 7-[2-cyano-3-[[ethyl(methyl)sulfamoyl]amino]-6-fluoro-phenoxy]-2-[[1-[4-[3-(2,4-dioxohexahydropyrimidin-1-yl)-5-fluoro-1-methyl-indazol-6-yl]cyclohexyl]-4-piperidyl]methoxy]quinoxaline] | 1000 to 10000 | 50 to 90 |  | 
3 | CO[C@@H]1CCN(S(=O)(=O)Nc2ccc(F)c(Oc3ccc4ncn([C@H]5COC6(CCN(C7CCC(c8ccc(NC9CCC(=O)NC9=O)cc8F)CC7)CC6)C5)c(=O)c4c3)c2C#N)C1 (single isomer, unassigned) [Compound 109] | < 1000 | < 50 |  | 
4 | CCN(C)S(=O)(=O)Nc1ccc(F)c(Oc2ccc3ncn(C4CC5(CCN(C6CCC(c7cc8c(cc7F)c(N7CCC(=O)NC7=O)nn8C)CC6F)CC5)C4)c(=O)c3c2)c1F (single isomer, unassigned) [Compound 184] |  | 50 to 90 | 1000 to 10000 | 
5 | Cn1nc(N2CCC(=O)NC2=O)c2cc(F)c(N3CC4(CC(N5CCC6(CC5)CC(n5cnc7ccc(Oc8c(F)ccc(NS(=O)(=O)C9CC9)c8C#N)cc7c5=O)C6)C4)C3)cc21 [Compound 260, N-[2-cyano-3-[3-[7-[2-[3-(2,4-dioxohexahydropyrimidin-1-yl)-5-fluoro-1-methyl-indazol-6-yl]-2-azaspiro[3.3]heptan-6-yl]-7-azaspiro[3.5]nonan-2-yl]-4-oxo-quinazolin-6-yl]oxy-4-fluoro-phenyl]cyclopropanesulfonamide] | < 1000 | 50 to 90 |  | 
6 | CCN(C)S(=O)(=O)Nc1ccc(F)c(Oc2ccc3ncn([C@H]4COC5(CCN(C6CCC(c7ccc(N[C@H]8CCC(=O)NC8=O)cc7F)CC6)CC5)C4)c(=O)c3c2)c1C#N (single isomer, unassigned) [Compound 3] | < 1000 | < 50 |  | 
7 | CCN(C)S(=O)(=O)Nc1ccc(F)c(Oc2ccc3ncc(OC4CCN(C5CCC(c6ccc(NC7CCC(=O)NC7=O)cc6F)CC5)CC4)nc3c2)c1C#N (single isomer, unassigned) [Compound 110, 7-[2-cyano-3-[[ethyl(methyl)sulfamoyl]amino]-6-fluoro-phenoxy]-2-[[1-[4-[4-[(2,6-dioxo-3-piperidyl)amino]-2-fluoro-phenyl]cyclohexyl]-4-piperidyl]oxy]quinoxaline] | > 10000 | 50 to 90 |  | 
8 | CN(CCO)S(=O)(=O)Nc1ccc(F)c(Oc2ccc3ncn(C4CC5(CCN(C6CCC(c7cc8c(cc7F)c(N7CCC(=O)NC7=O)nn8C)CC6F)CC5)C4)c(=O)c3c2)c1C#N (single isomer, unassigned) [Compound 145, 6-[2-cyano-6-fluoro-3-[[2-hydroxyethyl(methyl)sulfamoyl]amino]phenoxy]-3-[7-[4-[3-(2,4-dioxohexahydropyrimidin-1-yl)-5-fluoro-1-methyl-indazol-6-yl]-2-fluoro-cyclohexyl]-7-azaspiro[3.5]nonan-2-yl]-4-oxo-quinazoline] |  | 50 to 90 | 1000 to 10000 | 
9 | CCN(C)S(=O)(=O)Nc1ccc(F)c(Oc2ccc3ncn([C@H]4COC5(CCC(N6CC7(CN(c8cc9c(cc8F)c(N8CCC(=O)NC8=O)nn9C)C7)C6)CC5)C4)c(=O)c3c2)c1C#N (stereo partly drawn) [Compound 27, 6-[2-cyano-3-[[ethyl(methyl)sulfamoyl]amino]-6-fluoro-phenoxy]-3-[(3R)-8-[6-[3-(2,4-dioxohexahydropyrimidin-1-yl)-5-fluoro-1-methyl-indazol-6-yl]-2,6-diazaspiro[3.3]heptan-2-yl]-1-oxaspiro[4.5]decan-3-yl]-4-oxo-quinazoline] | < 1000 | < 50 |  | 
10 | CCN(C)S(=O)(=O)Nc1ccc(F)c(Oc2ccc3ncn([C@H]4CCC5(CCN(C6CCC(c7cc8c(cc7F)c(N7CCC(=O)NC7=O)nn8C)CC6)CC5)C4)c(=O)c3c2)c1C#N (single isomer, unassigned) [Compound 33] | < 1000 | < 50 |  | 
11 | CC(C)S(=O)(=O)Nc1ccc(F)c(Oc2ccc3ncn([C@H]4COC5(CCN(C6CCC(c7cc8c(cc7F)c(N7CCC(=O)NC7=O)nn8C)CC6)CC5)C4)c(=O)c3c2)c1C#N (single isomer, unassigned) [Compound 87] | < 1000 | < 50 |  | 
12 | CCN(C)S(=O)(=O)Nc1ccc(F)c(Oc2ccc3ncn([C@H]4COC5(CCN(C6CCC(c7cc8c(cc7F)c(N7CCC(=O)NC7=O)nn8C)CC6)CC5)C4)c(=O)c3c2)c1F (single isomer, unassigned) [Compound 71] | < 1000 | < 50 |  | 
13 | Cn1nc(N2CCC(=O)NC2=O)c2cc(F)c(N3CC4(CC(N5CCC6(CC5)CC(n5cnc7ccc(Oc8c(F)ccc(NS(=O)(=O)N9CC[C@@H](F)C9)c8C#N)cc7c5=O)C6)C4)C3)cc21 [Compound 261, (3R)-N-[2-cyano-3-[3-[7-[2-[3-(2,4-dioxohexahydropyrimidin-1-yl)-5-fluoro-1-methyl-indazol-6-yl]-2-azaspiro[3.3]heptan-6-yl]-7-azaspiro[3.5]nonan-2-yl]-4-oxo-quinazolin-6-yl]oxy-4-fluoro-phenyl]-3-fluoro-pyrrolidine-1-sulfonamide] | < 1000 | < 50 |  | 
14 | CCN(C)S(=O)(=O)Nc1ccc(F)c(Oc2ccc3ncn(C4CC5(CCN(C6CCC(c7cc8c(cc7F)c(N7CCC(=O)NC7=O)nn8C)CC6F)CC5)C4)c(=O)c3c2)c1C#N (single isomer, unassigned) [Compound 85] |  |  | < 1000 | *** (<=50%)
15 | CC(C)S(=O)(=O)Nc1ccc(F)c(Oc2ccc3ncn(C4CC5(CCN(C6CC7(C6)CN(c6cc8c(cc6F)c(N6CCC(=O)NC6=O)nn8C)C7)CC5)C4)c(=O)c3c2)c1C#N (centres unmarked) [Compound 273, N-[2-cyano-3-[3-[7-[2-[3-(2,4-dioxohexahydropyrimidin-1-yl)-5-fluoro-1-methyl-indazol-6-yl]-2-azaspiro[3.3]heptan-6-yl]-7-azaspiro[3.5]nonan-2-yl]-4-oxo-quinazolin-6-yl]oxy-4-fluoro-phenyl]propane-2-sulfonamide] | < 1000 | < 50 |  | 
16 | CCN(C)S(=O)(=O)Nc1ccc(F)c(Oc2ccc3ncn([C@H]4COC5(CCN(C6CC7(C6)CN(c6ccc(NC8CCC(=O)NC8=O)cc6F)C7)CC5)C4)c(=O)c3c2)c1C#N (stereo partly drawn) [Compound 35, (3R)-3-[6-[2-cyano-3-[[ethyl(methyl)sulfamoyl]amino]-6-fluoro-phenoxy]-4-oxo-quinazolin-3-yl]-8-[2-[4-[(2,6-dioxo-3-piperidyl)amino]-2-fluoro-phenyl]-2-azaspiro[3.3]heptan-6-yl]-1-oxa-8-azaspiro[4.5]decane] | 1000 to 10000 | 50 to 90 |  | 
17 | CCN(C)S(=O)(=O)Nc1ccc(F)c(Oc2ccc3ncn([C@@H]4COC5(CCN(C6CCC(c7cc8c(cc7F)c(N7CCC(=O)NC7=O)nn8C)CC6)CC5)C4)c(=O)c3c2F)c1C#N (single isomer, unassigned) [Compound 46] | < 1000 | < 50 |  | 
18 | Cn1nc(N2CCC(=O)NC2=O)c2cc(F)c(C3CCC(N4CCC5(CC4)C[C@@H](n4cnc6ccc(Oc7c(F)ccc(NS(=O)(=O)C8CCCC8)c7C#N)cc6c4=O)CO5)CC3)cc21 (single isomer, unassigned) [Compound 113] | < 1000 | < 50 |  | 
19 | CN(CCO)S(=O)(=O)Nc1ccc(F)c(Oc2ccc3ncn(C4CC5(CCN(C6CC7(C6)CN(c6cc8c(cc6F)c(N6CCC(=O)NC6=O)nn8C)C7)CC5)C4)c(=O)c3c2)c1C#N (centres unmarked) [Compound 151, 6-[2-cyano-6-fluoro-3-[[2-hydroxyethyl(methyl)sulfamoyl]amino]phenoxy]-3-[7-[2-[3-(2,4-dioxohexahydropyrimidin-1-yl)-5-fluoro-1-methyl-indazol-6-yl]-2-azaspiro[3.3]heptan-6-yl]-7-azaspiro[3.5]nonan-2-yl]-4-oxo-quinazoline] | 1000 to 10000 | > 90 |  | 
20 | Cn1nc(N2CCC(=O)NC2=O)c2cc(F)c(C3CCC(N4CCC5(CC4)CC(n4cnc6ccc(Oc7c(F)ccc(NS(=O)(=O)N8CC[C@@H](F)C8)c7C#N)cc6c4=O)C5)CC3)cc21 (single isomer, unassigned) [Compound 122] | < 1000 | < 50 |  | 
21 | CCN(C)S(=O)(=O)Nc1ccc(F)c(Oc2ccc3ncn([C@H]4CCC5(CCN(C6CCC(c7ccc(NC8CCC(=O)NC8=O)cc7F)CC6)CC5)C4)c(=O)c3c2)c1C#N (single isomer, unassigned) [Compound 24] | < 1000 | < 50 |  | 
22 | Cn1nc(N2CCC(=O)NC2=O)c2cc(F)c(C3CCC(N4CCC5(CC4)C[C@@H](n4cnc6ccc(Oc7c(F)ccc(NS(=O)(=O)N8CC[C@@H](F)C8)c7C#N)cc6c4=O)CO5)CC3)cc21 (single isomer, unassigned) [Compound 121] | < 1000 | < 50 |  | 

From US20260297060A1, “COMPOUNDS FOR THE DEGRADATION OF MUTANT BRAF” (C4 THERAPEUTICS, INC., priority 2023, published 2026)
